Format: physicochemical
Conditions: for GC purity after storage / acid number after storage / appearance after storage / odor after storage: after storage for 39 months in a closed glass jar
Source text: Precipitation according to the method of the invention provides menthyl lactate having improved stability compared with that of an unprecipitated sample. By “improved stability,” we mean that one or more important physical properties of the menthyl lactate becomes more constant as a function of time as a consequence of precipitation when compared with menthyl lactate that has not been precipitated according to the method. Important physical properties include, without limitation, appearance, dimensional stability, color, texture, organoleptic properties (odor, flavor), melting point, acid number, GC purity, optical rotation, pH, solubility, and the like. Preferably, the ML retains its desirable physical property or properties even after prolonged storage. “Prolonged” depends on the particular application, but it is preferably at least one week, more preferably at least one month, and most preferably at least one year.
After storage for 39 months in a closed glass jar, the product is evaluated for quality.
A sample of solid menthyl lactate from the same batch that was used in Example 1 is stored under similar conditions for the same 39 months. […] Mp: 39.3° C.; GC purity: <96%; acid number: 32 mg KOH/g.

| Structure (SMILES) | melting point after storage | GC purity after storage | acid number after storage | appearance after storage | odor after storage |
| --- | --- | --- | --- | --- | --- |
| CC1CCC(C(C)C)C(OC(=O)C(C)O)C1 (stereo not drawn) [Comparative Example 3, menthyl lactate] | 36.7 °C | 92% | 20 mg KOH/g | shrinks | strong, pungent acidic odor |
| CC1CCC(C(C)C)C(OC(=O)C(C)O)C1 (stereo not drawn) [Comparative Example 4, menthyl lactate] | 43.6 °C | – | 0.27 mg KOH/g | – | some deterioration of odor quality |
| CC1CCC(C(C)C)C(OC(=O)C(C)O)C1 (stereo not drawn) [Example 1, menthyl lactate] | 43.9 °C | ≥ 99.8% | 0.15 mg KOH/g | fine, white crystalline powder | faint, minty |
| CC1CCC(C(C)C)C(OC(=O)C(C)O)C1 (stereo not drawn) [compound 2, menthyl lactate] | 39.3 °C | < 96% | 32 mg KOH/g | – | strong, pungent acidic odor |
| CC1CCC(C(C)C)C(OC(=O)C(C)O)C1 (stereo not drawn) [compound 5, menthyl lactate] | 43.7 °C | 97% | 0.32 mg KOH/g | – | strong, pungent acidic odor |

From patent US7655816B2, “Method for stabilizing menthyl lactate” (Millennium Specialty Chemicals, priority 2007, dated 2010)
